Measurements published in US20220396819A1, “METHOD FOR PRODUCING PEPTIDE HAVING PHYSIOLOGICAL ACTIVITY, AND PEPTIDE COMPRISING SHORT LINKER” (priority 2019, published 2022).
Positions of bridges follow the written chain, without caps; N, C: chain ends. No end group written: not given here.

Assays:
Format in all cases: cell-based
Met = target: T1, Met (Homo sapiens, UniProt P08581); test: Met activation ability, SRE luciferase assay in HEK293E cells (HGF-Erk-SRE pathway); conditions: for signal activation ability, dimer versus monomer: Example 43, FIG. 76
T1 construct: endogenous in cells; host or cells: HEK293E
Experimental: (§1) The Met activation ability of the HGF-PAS dimer peptide was evaluated by luciferase assay. To 25 μL of Opti-MEM medium (Thermo Fisher Scientific), 0.6 μL of Attractene Transfection Reagent (QIAGEN) was added, and the mixture was incubated at room temperature for 5 minutes. To the above mixed solution, a mixed solution of 25 μL of Opti-MEM and 1 μL of SRE reporter vector (QIAGEN) was added, and the mixture was incubated at room temperature for 20 minutes. This mixed solution was added to a 96-well plate, over which 40,000 cell/well HEK293E cells were seeded and incubated overnight in a 5% CO2 incubator at 37° C. After transfection, all culture supernatant was removed, 100 μL of Opti-MEM medium (evaluation basal medium) containing 0.5% FBS (Thermo Fisher Scientific), 1% non-essential amino acid solution (Thermo Fisher Scientific), and penicillin-streptomycin (Nacalai Tesque) was added, and incubation was performed at 37° C. for 4 hours, and thereby the cells were starved.
To the evaluation basal medium, 0 to 200 ng/mL HGF was added, or 0 to 800 ng/mL AET-PAS-aMD4dY-PEG11, AET-PAS-aMD4-PEG11, or AET-PAS-aMD4-PEG3 was added, or a culture supernatant containing PAS-aMD4dY-PEG11, PAS-aMD4-PEG11, or PAS-aMD4-PEG3 was added so as to be diluted 10-fold with respect to the medium, and the evaluation basal medium was added in an amount of 100 μL to the cells. The cells were stimulated by culturing overnight in a 5% CO2 incubator at 37° C.
The signal intensities were detected using Dual-Luciferase Reporter Assay System (Promega). The medium supernatant in an amount of 100 μL was removed, 50 μL of Glo reagent was added, and the cells were lysed for 10 minutes at room temperature. The luminescence of Firefly luciferase emitted from the cell lysate solution was detected with a plate reader to quantify the activation of the HGF-Erk-SRE pathway. Subsequently, 50 μL of Glo & Stop reagent solution was added, and after 10 minutes, the luminescence of the internal standard Renilla luciferase was detected to quantify the number of cells. The signal activity of each sample was quantified as SRE activity=(Firefly luciferase luminescence intensity)/(Renilla luciferase luminescence intensity). The relative signal activity values for the samples without addition of the evaluation compound were determined and used as relative receptor activity.
as §1, with “peptide linker variant” for “peptide”, “0.6 L” for “0.6 μL”
To the evaluation basal medium, 0 to 100 ng/mL HGF was added, or a culture supernatant containing AET-aMD4dY-PAS8, AET-aMD4dY-PAS22 (the same molecule as AET-PAS-aMD4dY-PEG11), AET-aMD4dY-PAS49, AET-aMD4dY-PAS100, AET-aMD4dY-PAS200, AET-aMD4dY-GS15, or AET-aMD4dY-GS22 was added to the medium so as to be diluted at a predetermined ratio, and the evaluation basal medium was added in an amount of 100 μL to the cells. The cells were stimulated by culturing overnight in a 5% CO2 incubator at 37° C.
The Met activation ability of the stabilized HGF-PAS dimer peptide was evaluated by luciferase assay. […]

HuCCT1 cells = test: Cell migration activity, Transwell, HuCCT1 cells; conditions: 100 ng/mL HGF or 200 ng/mL peptide, 24 hours, FIGS. 13, 14
Experimental: HGF has been reported to promote cell migration ability by activating Met (K. Ito, et al. Nat. Commun. 6, 6373, 2015). Therefore, HuCCT1 cell culture was used to evaluate whether the HGF-PAS dimer peptide had the same activity of promoting cell migration as HGF.
To Transwell inserts for 24-well (pore size 3.0 m, Corning), 20,000 HuCCT1 cells suspended in low serum medium (RPMI 1640 medium with 0.5% FBS) were added. A low serum medium containing 100 ng/mL HGF or 200 ng/mL AET-PAS-aMD4dY-PEG11 was added to the lower layer. After culturing for 24 hours under the conditions of 37° C. and 5% CO2, the Transwell inserts were washed 3 times with PBS and cell-fixed and stained with methanol containing 0.5% Crystal Violet (Nacalai Tesque) for 10 minutes. Immobilized and stained Transwell inserts were washed with distilled water. The cells inside the inserts were removed with a scraper. The cells migrated to the outside of the inserts and stained were photographed in the bright field observation mode of a BZ-X microscope (Keyence).
The migration ability was calculated as (area of stained region)/(insert area) and as a relative value (Relative migration efficiency) to the value of the non-added group (Mock) (N=2).

[1] = test system: receptor tyrosine kinase (RTK); test: RTK specificity, Proteome Profiler Human Phospho-RTK Array Kit, HEK293E cells; conditions: 200 ng/mL peptide or 100 ng/mL HGF, 10 minutes, FIG. 10
Experimental: The receptor tyrosine kinase (RTK) specificity of the HGF-PAS dimer peptide was evaluated using Proteome Profiler Human Phospho-RTK Array Kit (R&D Systems).
HEK293E cells confluent in a 10 cm cell culture dish were starved by culturing for 24 hours in D-MEM medium containing 0.5% FBS (Thermo Fisher Scientific) and penicillin-streptomycin (Nacalai Tesque). The starved HEK293E cells were stimulated with 200 ng/mL AET-PAS-aMD4dY-PEG11 for 10 minutes. As a positive control, 100 ng/mL HGF was similarly stimulated for 10 minutes. As a negative control, PBS was added and stimulated for 10 minutes (Mock group). After removing the medium and washing the cells once with PBS, the cells were lysed by adding 1 mL of Lysis buffer 17 containing a Protease inhibitor cocktail (Nacalai Tesque). The lysate solution was centrifuged at 14,000 G for 5 minutes to obtain the supernatant as a lysate.
The lysate was analyzed using Proteome Profiler Human Phospho-RTK Array Kit. Molecular Imager ChemiDoc XRS System (Bio-Rad) was used to detect chemiluminescence.

T1 sequence (P08581 25-1390): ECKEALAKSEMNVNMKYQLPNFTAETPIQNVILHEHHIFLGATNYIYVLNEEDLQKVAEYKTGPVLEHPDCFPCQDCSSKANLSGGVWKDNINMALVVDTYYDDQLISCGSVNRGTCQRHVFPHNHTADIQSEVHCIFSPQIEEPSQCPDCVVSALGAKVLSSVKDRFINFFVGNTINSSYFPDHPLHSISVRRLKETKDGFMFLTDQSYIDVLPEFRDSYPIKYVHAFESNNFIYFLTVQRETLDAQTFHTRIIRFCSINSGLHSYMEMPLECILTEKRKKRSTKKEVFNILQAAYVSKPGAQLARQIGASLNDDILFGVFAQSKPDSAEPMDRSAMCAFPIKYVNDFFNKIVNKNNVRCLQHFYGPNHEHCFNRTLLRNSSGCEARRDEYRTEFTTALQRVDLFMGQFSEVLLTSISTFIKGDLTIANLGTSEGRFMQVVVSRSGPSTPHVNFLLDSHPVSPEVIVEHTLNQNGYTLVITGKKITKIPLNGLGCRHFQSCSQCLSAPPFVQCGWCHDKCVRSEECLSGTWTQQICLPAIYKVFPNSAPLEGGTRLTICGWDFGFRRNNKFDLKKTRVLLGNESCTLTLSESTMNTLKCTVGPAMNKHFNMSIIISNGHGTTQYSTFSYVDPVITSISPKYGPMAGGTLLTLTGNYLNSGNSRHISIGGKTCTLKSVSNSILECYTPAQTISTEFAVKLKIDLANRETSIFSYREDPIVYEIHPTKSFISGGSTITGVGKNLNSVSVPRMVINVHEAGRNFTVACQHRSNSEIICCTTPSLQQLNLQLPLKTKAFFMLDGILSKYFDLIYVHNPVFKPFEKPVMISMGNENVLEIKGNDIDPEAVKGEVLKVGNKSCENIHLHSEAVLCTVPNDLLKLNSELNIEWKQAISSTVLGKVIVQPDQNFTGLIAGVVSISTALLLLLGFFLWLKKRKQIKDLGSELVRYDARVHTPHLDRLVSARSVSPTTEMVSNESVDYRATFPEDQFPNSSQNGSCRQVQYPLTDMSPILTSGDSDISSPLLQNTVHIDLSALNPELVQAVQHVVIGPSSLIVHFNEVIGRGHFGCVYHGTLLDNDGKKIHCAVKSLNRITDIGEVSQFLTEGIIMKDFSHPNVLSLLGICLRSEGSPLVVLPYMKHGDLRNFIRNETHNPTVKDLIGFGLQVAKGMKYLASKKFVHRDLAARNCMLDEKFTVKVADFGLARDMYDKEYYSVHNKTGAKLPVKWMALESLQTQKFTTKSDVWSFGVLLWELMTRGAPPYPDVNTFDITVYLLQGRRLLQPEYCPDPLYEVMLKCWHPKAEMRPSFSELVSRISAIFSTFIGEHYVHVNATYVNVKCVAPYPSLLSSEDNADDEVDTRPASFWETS

| Substance | maximum activity compared with HGF (Met; Example 6, AET form 0 to 800 ng/mL, PAS form culture supernatant diluted 10-fold) | signal activation ability, dimer versus monomer (Met) | cell migration (HuCCT1 cells) | RTK phosphorylation (specificity) [1] |
| --- | --- | --- | --- | --- |
| AETCRQFNRRTHEVWNLDCGAAPAAPAPAAPAAPAPAAPAAPGCRQFNRRTHEVWNLDC (disulfide 4-19, 44-59; also: PEG11) [AET-PAS-aMD4dY-PEG11] | comparable to 100 ng/mL HGF | showed signal activation ability | promoted cell migration | Met was specifically phosphorylated |
| HGF: recombinant human HGF (rhHGF, R&D Systems) | – | showed signal activation ability | proportion of the cells migrating to the lower part of the Transwell inserts increased | Met was specifically phosphorylated |
